The text below walks through data of patent publication US20240398768A1, “METHODS OF TREATING SOLID TUMOR USING HETEROAROMATIC MACROCYCLIC ETHER COMPOUNDS” (Nuvalent, Inc., priority 2021, published 2024).

Each structure is given as a SMILES string.

One series has as its target CYP3A4 (Homo sapiens, UniProt P08684). As to the kind of experiment: CYP inhibition. In kind it is in vitro ADME. Particulars: for IC50: CYP3A4 inhibition.
The target of a further series is T1, CYP1A2 (Homo sapiens, UniProt P05177).
T1 sequence (P05177 1-516): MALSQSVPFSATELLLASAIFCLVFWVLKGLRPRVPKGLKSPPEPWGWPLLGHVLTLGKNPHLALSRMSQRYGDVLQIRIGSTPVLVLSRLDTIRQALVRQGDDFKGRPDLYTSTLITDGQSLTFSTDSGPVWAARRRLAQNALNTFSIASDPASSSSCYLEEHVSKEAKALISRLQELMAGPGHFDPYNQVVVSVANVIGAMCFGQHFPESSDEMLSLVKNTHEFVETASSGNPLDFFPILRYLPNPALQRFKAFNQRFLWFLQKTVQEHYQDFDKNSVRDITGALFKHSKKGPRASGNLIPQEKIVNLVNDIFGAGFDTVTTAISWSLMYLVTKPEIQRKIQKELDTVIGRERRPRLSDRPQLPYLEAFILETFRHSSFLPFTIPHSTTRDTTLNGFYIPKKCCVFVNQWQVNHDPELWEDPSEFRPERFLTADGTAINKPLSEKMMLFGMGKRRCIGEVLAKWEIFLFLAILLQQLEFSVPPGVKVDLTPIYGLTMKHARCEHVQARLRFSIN
As to the kind of experiment: CYP inhibition. It counts as in vitro ADME.

Chain of CYP3A4 (P08684 whole entry): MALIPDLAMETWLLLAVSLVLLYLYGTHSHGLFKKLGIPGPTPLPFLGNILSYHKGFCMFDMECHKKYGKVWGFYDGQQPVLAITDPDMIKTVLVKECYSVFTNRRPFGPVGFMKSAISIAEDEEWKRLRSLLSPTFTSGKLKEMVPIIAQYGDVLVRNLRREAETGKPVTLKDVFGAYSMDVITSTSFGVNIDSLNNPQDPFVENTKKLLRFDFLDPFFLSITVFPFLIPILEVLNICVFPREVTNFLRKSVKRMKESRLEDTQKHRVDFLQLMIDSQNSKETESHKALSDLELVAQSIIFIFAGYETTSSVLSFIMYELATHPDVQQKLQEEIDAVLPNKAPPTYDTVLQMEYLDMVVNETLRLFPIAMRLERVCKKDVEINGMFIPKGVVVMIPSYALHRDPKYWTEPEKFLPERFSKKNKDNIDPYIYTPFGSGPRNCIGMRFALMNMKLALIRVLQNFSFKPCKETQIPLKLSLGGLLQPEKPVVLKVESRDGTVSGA

On to `CCn1ncc2c1-c1cnc(N)c(c1)O[C@H](C)c1cc(F)ccc1-c1nn(C)nc1C2` [Compound 1, (19R)-3-ethyl-16-fluoro-10,19-dimethyl-20-oxa-3,4,9,10,11,23-hexaazapentacyclo [19.3.1.0^2,^6.0^8,^12.0^13,^18]pentacosa-1 (24),2 (6),4,8,11,13,15,17,21 (25),22-decaen-22-amine], for which the “inhibitor of CYP3A4 (testosterone) and CYP3A4 (midazolam)” value on CYP3A4 is listed as “potential inhibitor”. Further, the IC50 (in general, the midpoint of a concentration-inhibition curve) against CYP3A4 (midazolam) was 30 µM; on CYP3A4 (testosterone), 62.7 µM; on CYP1A2, more than 100 µM.
